Measurements as given in ChEMBL document CHEMBL1129438, “Neighboring group catalysis in the design of nucleotide prodrugs” (J Med Chem, 1996).

Assays:
[1] = Half life (t 1/2) during pig liver esterase-catalyzed hydrolysis; assay type: ADME, organism-based, Sus scrofa
[2] = Half life (t 1/2) during base-catalyzed hydrolysis; assay type: ADME
[3] = Half life (t 1/2) during hydrolysis caused by human serum; assay type: ADME, organism-based
[4] = Half life (t 1/2) during hydrolysis catalyzed by brain extract; assay type: ADME, tissue-based

COC(=O)c1ccccc1OP(=O)(OC[C@H]1O[C@@H](n2ccc(=O)[nH]c2=O)C[C@@H]1N=[N+]=[N-])OC[C@H]1O[C@@H](n2ccc(=O)[nH]c2=O)C[C@@H]1N=[N+]=[N-]
half-life [1]: 20 h | half-life [2]: 1.1 h | half-life [3]: 4 h | half-life [4]: 4 h

[N-]=[N+]=N[C@H]1C[C@H](n2ccc(=O)[nH]c2=O)O[C@@H]1COP(=O)(OC[C@H]1O[C@@H](n2ccc(=O)[nH]c2=O)C[C@@H]1N=[N+]=[N-])Oc1ccccc1C(=O)Oc1ccccc1
half-life [1]: 1 h | half-life [2]: 1.1 h | half-life [3]: 4 h | half-life [4]: 5 h

[N-]=[N+]=N[C@H]1C[C@H](n2ccc(=O)[nH]c2=O)O[C@@H]1COP(=O)(OC[C@H]1O[C@@H](n2ccc(=O)[nH]c2=O)C[C@@H]1N=[N+]=[N-])Oc1ccccc1
half-life [1]: 17 h | half-life [2]: 17 h | half-life [3]: 17 h | half-life [4]: 17 h

O=C(OC1O[C@H](CO)[C@@H](O)[C@H](O)[C@H]1O)c1ccccc1OP(=O)(OC[C@@H]1CC[C@H](n2ccc(=O)[nH]c2=O)O1)OC[C@@H]1CC[C@H](n2ccc(=O)[nH]c2=O)O1 (stereo partly specified)
half-life [1]: > 48 h | half-life [2]: 17 h | half-life [3]: 48 h | half-life [4]: > 72 h
